{"source": "patent US12390477B2", "about": "“Ganaxolone for use in treating tuberous sclerosis complex and seizure disorders” (Immedica Pharma US Inc., priority 2021, dated 2025)", "key": {"CYP2C19": {"molecular_target": "CYP2C19 (Homo sapiens, UniProt P33261)", "sequence (P33261 whole entry)": "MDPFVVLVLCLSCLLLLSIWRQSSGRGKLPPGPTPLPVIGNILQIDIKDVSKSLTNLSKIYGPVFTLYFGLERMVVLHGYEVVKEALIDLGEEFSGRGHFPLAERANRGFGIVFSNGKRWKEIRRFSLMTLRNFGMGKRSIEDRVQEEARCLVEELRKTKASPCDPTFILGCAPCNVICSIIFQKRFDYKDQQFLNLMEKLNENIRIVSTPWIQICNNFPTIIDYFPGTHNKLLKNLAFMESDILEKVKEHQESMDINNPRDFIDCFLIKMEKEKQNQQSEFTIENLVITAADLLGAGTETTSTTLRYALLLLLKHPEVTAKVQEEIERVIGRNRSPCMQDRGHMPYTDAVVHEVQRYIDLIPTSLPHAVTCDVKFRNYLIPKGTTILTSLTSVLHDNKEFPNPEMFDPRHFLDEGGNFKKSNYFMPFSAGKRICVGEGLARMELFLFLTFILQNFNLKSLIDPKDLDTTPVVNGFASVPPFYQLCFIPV", "settings": "cited from earlier work"}, "[1]": {"tested_on": "major motor seizures in CDD", "assay": "Marigold phase 3 trial of ganaxolone in CDKL5 deficiency disorder: seizure frequency", "format": "in vivo, human", "description": "(§1) The Marigold Study was a phase 3 clinical trial of ganaxolone for the treatment of CDD. The trial met primary endpoint-median 28-day major motor seizure frequency reduction of 32.2 percent compared to 4.9 percent for placebo. […] The most frequent adverse event was somnolence.\n(See, FIG. 10.) These effects are unlikely secondary to age or weight, which were balanced between the two groups."}, "[2]": {"tested_on": "UGT1A9, UGT2B7, CYP1A2, CYP2B6, CYP2C8, CYP2C9 or CYP2C19", "settings": "cited from earlier work"}, "[3]": {"assay": "Phase 2 open-label TSC trial (Part A): safety and tolerability, adverse events", "format": "in vivo, human", "description": "(§2) This was an open label (OL) proof of concept study of adjunctive GNX treatment in patients with a confirmed clinical diagnosis of TSC and/or a mutation in either the TSC1 or TSC2 gene. The trial consisted of two parts: Part A consisted of a 4-week baseline period followed by a 12-week treatment period (4-week titration and 8-week maintenance). For patients not continuing in the OLE period (Part B), a 2-week taper period followed by a 2-week safety period followed. The main difference between Part A and Part B is the length of treatment, less frequent assessments, and the ability to alter drug doses (both GNX and other antiepileptic drug [AED] treatments which includes initiating and stopping other medications) based on investigator evaluation of the patient's clinical course during Part B. Patients with a seizure frequency reduction rate of ≥35% during the 12-week treatment period in Part A compared to baseline were eligible to continue into Part B (“OLE eligible”).\n(§3) After meeting all eligibility criteria, approximately 30 patients aged 2 to 65 years (inclusive) with TSC-related epilepsy were enrolled to receive GNX for a total of 12 weeks (4 week titration, 8 week maintenance) in addition to their standard anti-seizure medication(s) (ASMs). Patients were titrated to 63 mg/kg/day (maximum 1800 mg/day) over 4 weeks, and then maintained at that dose for another 8 weeks. Patients who were not able to tolerate 63 mg/kg/day (or maximum 1800 mg/day) were eligible to be maintained on a lower dose after discussion with the medical monitor. A minimum dose of 33 mg/kg/day or 900 mg/day was generally required during the maintenance period.\n(§4) Pharmacokinetics, Safety and tolerability were assessed.\nIf the next dose was still not tolerated, the patient could drop back to the next lower dose step. A minimum dose of 33 mg/kg/day or 900 mg/day was generally required following the escalation period, during the maintenance period."}, "CYP3A4/5": {"tested_on": "CYP3A4/5", "settings": "cited from earlier work"}, "[4]": {"assay": "Human pharmacokinetic studies of ganaxolone and CBD", "format": "in vivo", "description": "Without wishing to be bound by any particular theory, the inventors believe that the results of the clinical study can be explained by a previously unknown and unexpected drug interaction between ganaxolone and CBD. This is unexpected because ganaxolone is metabolized by CYP3A4/5. Landmark et al. Epilepsia 2021 62:857-873. […] Accordingly, it was unexpected that ganaxolone plasma concentrations, tolerability and efficacy would be affected by concomitant CBD. […] Thus, without wishing to be bound by any particular theory or mechanism, the unexpected drug-drug interaction could be a pharmacodynamic interaction."}, "[5]": {"assay": "Marigold phase 3 trial of ganaxolone in CDD: safety and tolerability", "format": "in vivo, human", "settings": "CDD patients", "description": "as §1"}, "[6]": {"assay": "Phase 2 open-label TSC trial (Part A): ganaxolone plasma/serum concentration", "format": "in vivo, human", "method": "as §4"}, "TSC-associated seizures": {"tested_on": "TSC-associated seizures", "assay": "Phase 2 open-label trial of adjunctive ganaxolone in TSC-related epilepsy (Part A): seizure frequency", "format": "in vivo, human", "method": "A Phase 2 open-label 12 week trial of adjunctive ganavolone treatment (Part A) in tuberous sclerosis complex-related epilepsy followed by long-term treatment (Part B) was conducted. This was a multicenter study conducted at 7 sites in the United States.\nThe primary objectives were to assess preliminary safety and efficacy of ganavolone (GNX) as adjunctive therapy for the treatment of primary seizure types in patients with genetically- or clinically-confirmed TSC-related epilepsy through the end of the 12 week treatment period. The primary seizure types (focal motor seizures without impairment of consciousness or awareness, focal seizures with impairment of consciousness or awareness, focal seizures evolving to bilateral, tonic-clonic convulsive seizures, and generalized motor seizures including tonic-clonic, bilateral tonic, bilateral clonic, or atonic/drop seizures) are identified to be the most common, easily identifiable/countable by a parent/caregiver/legally authorized representative (LAR), and most consequential to the patient's quality of life.\nas §2, §3\nPatients were required to complete a daily diary to determine GNX's effect on seizures. Days without seizures should also have been noted. Additional clinician and caregiver administered instruments were used to assess the efficacy of GNX in TSC and included: Caregiver Global Impression of Change (CGI-C)—Target Behavior and Clinical Global Impression—Improvement (CGI-I) caregiver and CGI-I clinician.\nGanaxolone was administered in increments of 15 mg/kg/day up to 63 mg/kg/day (maximum 1800 mg/day) given as an oral suspension with food. Patients weighing ≤28 kg were dosed on an mg/kg basis. Patients weighing >28 kg were dosed on a fixed regimen in increments of 450 mg/day up to 1800 mg/day.\nSeizures: All seizure types and number of seizures were to be recorded daily in a diary. Days in which no seizures occur were also to be noted.\nPrimary Efficacy Endpoint: The primary efficacy endpoint was the percent change in 28-day primary seizure frequency through the end of the 12-week treatment period (4-week titration and 8-week maintenance) relative to the 4-week baseline. […]"}}, "data": [{"smiles": "C=C(C)[C@@H]1CCC(C)=C[C@H]1c1c(O)cc(CCCCC)cc1O", "note": "[EPIDIOLEX, cannabidiol]", "values": [{"measurement": "increase in plasma concentration of N-desmethylclobazam", "setting": "CYP2C19; coadministration with clobazam (a CYP2C19 substrate)", "value": 3, "unit": "fold"}, {"measurement": "effect on clobazam levels", "setting": "CYP2C19; coadministration with clobazam", "value": "no effect"}]}, {"smiles": "CC(=O)[C@H]1CC[C@H]2[C@@H]3CC[C@H]4C[C@](C)(O)CC[C@]4(C)[C@H]3CC[C@]12C", "note": "[ganaxolone, 3α-hydroxy-3β-methyl-5α-pregnan-20-one]", "values": [{"measurement": "median 28-day major motor seizure frequency reduction", "setting": "[1]; CDD patients, ganaxolone arm", "value": 32.2, "unit": "%"}, {"measurement": "efficacy in patients who experienced somnolence-related adverse events vs those who did not", "setting": "[1]; ganaxolone treatment group (N=49), FIG. 10", "value": "reduced efficacy"}, {"measurement": "metabolism by enzymes implicated in CBD interactions with other drugs", "setting": "[2]", "value": "not significantly metabolized"}, {"measurement": "patients that discontinued Part A, number", "setting": "[3]; 23 enrolled", "value": 6, "unit": "patients"}, {"measurement": "patients that discontinued Part A, percent", "setting": "[3]; 23 enrolled", "value": 26.1, "unit": "%"}, {"measurement": "fatigue, number of patients reporting", "setting": "[3]; 23 enrolled TSC patients", "value": 3, "unit": "patients"}, {"measurement": "fatigue, percent of patients reporting", "setting": "[3]; 23 enrolled TSC patients", "value": 13.0, "unit": "%"}, {"measurement": "overall tolerability", "setting": "[3]; 23 enrolled TSC patients", "value": "generally well-tolerated"}, {"measurement": "patients with seizure assessed by the principal investigator as treatment related", "setting": "[3]; 23 enrolled TSC patients", "value": "One"}, {"measurement": "sedation, number of patients reporting", "setting": "[3]; 23 enrolled TSC patients", "value": 3, "unit": "patients"}, {"measurement": "sedation, percent of patients reporting", "setting": "[3]; 23 enrolled TSC patients", "value": 13.0, "unit": "%"}, {"measurement": "somnolence, number of patients reporting", "setting": "[3]; 23 enrolled TSC patients", "value": 10, "unit": "patients"}, {"measurement": "somnolence, percent of patients reporting", "setting": "[3]; 23 enrolled TSC patients", "value": 43.5, "unit": "%"}, {"measurement": "somnolence-related adverse events (somnolence, sedation, fatigue and lethargy), number of patients", "setting": "[3]; 23 enrolled TSC patients", "value": 17, "unit": "patients"}, {"measurement": "ganaxolone tolerability issues with concomitant CBD above 10 mg/kg vs no CBD or CBD at or below 10 mg/kg", "setting": "[3]; concomitant CBD above 10 mg/kg", "value": "greater ganaxolone tolerability issues"}, {"measurement": "patients on concomitant cannabidiol experiencing somnolence-related adverse events", "setting": "[3]; concomitant cannabidiol (n=12)", "value": "All patients"}, {"measurement": "patients that discontinued Part A because of an adverse event", "setting": "[3]; of the patients that discontinued", "value": 4}, {"measurement": "metabolizing enzyme", "setting": "CYP3A4/5", "value": "CYP3A4/5"}, {"measurement": "pharmacokinetic drug-drug interaction of ganaxolone and CBD", "setting": "[4]", "value": "did not provide evidence of a pharmacokinetic drug-drug interaction"}, {"measurement": "discontinuation rate in the active treatment arm", "setting": "[5]", "value": "less than 5%"}, {"measurement": "most frequent adverse event", "setting": "[5]", "value": "somnolence"}, {"measurement": "overall tolerability", "setting": "[5]", "value": "generally well tolerated"}, {"measurement": "mean ganaxolone serum concentration in patients with somnolence-related adverse events relative to patients without", "setting": "[6]; FIG. 3", "value": "higher"}, {"measurement": "mean ganaxolone plasma concentration with concomitant cannabidiol vs without", "setting": "[6]; FIG. 4", "value": "higher"}, {"measurement": "ganaxolone plasma concentration in relation to concomitant cannabidiol dose", "setting": "[6]; FIG. 5, n=11", "value": "higher doses of cannabidiol were associated with higher plasma concentrations of ganaxolone"}, {"measurement": "median reduction in TSC-associated seizure frequency", "setting": "TSC-associated seizures; 23 enrolled patients, 12-week treatment vs 4-week baseline", "value": 16.6, "unit": "%"}, {"measurement": "patients achieving ≥50% reduction in TSC-associated seizure frequency", "setting": "TSC-associated seizures; all enrolled patients (n=23)", "value": 30.4, "unit": "%"}, {"measurement": "efficacy in patients receiving concomitant EPIDIOLEX (CBD) at 10 mg/kg/day or less", "setting": "TSC-associated seizures; concomitant CBD 10 mg/kg/day or less", "value": "robust efficacy"}, {"measurement": "suppression of seizure (efficacy) with concomitant CBD above 10 mg/kg vs no CBD or CBD at or below 10 mg/kg", "setting": "TSC-associated seizures; concomitant CBD above 10 mg/kg", "value": "lower suppression of seizure"}, {"measurement": "fraction of patients with robust reduction in TSC-associated seizures", "setting": "TSC-associated seizures; including those on concomitant cannabidiol and everolimus", "value": "⅓"}, {"measurement": "median percent reduction in focal seizure frequencies", "setting": "TSC-associated seizures; n=19", "value": 25.2, "unit": "%"}, {"measurement": "patients achieving ≥50% reduction in TSC-associated seizure frequency", "setting": "TSC-associated seizures; patients that received concomitant cannabidiol (n=12)", "value": 25, "unit": "%"}, {"measurement": "patients achieving ≥50% reduction in TSC-associated seizure frequency", "setting": "TSC-associated seizures; patients that received concomitant everolimus (n=11)", "value": 36.4, "unit": "%"}, {"measurement": "median percent reduction in TSC-associated seizures, no concomitant cannabidiol vs concomitant cannabidiol", "setting": "TSC-associated seizures; patients without concomitant cannabidiol (n=11) compared with patients on cannabidiol", "value": "greater median percent reduction"}]}]}
